Square brackets hold non-standard residues; d marks the D form. Peptide text beside a SMILES is read from it. * marks the point of attachment. Hyp(2-Ph-quinolin-4-yl) = O=C(O)[C@@H]1C[C@@H](Oc2cc(-c3ccccc3)nc3ccccc23)CN1; Hyp(quinolin-4-yl) = O=C(O)[C@@H]1C[C@@H](Oc2ccnc3ccccc23)CN1; Ac3c(1R,2S-2-vinyl) = C=C[C@@H]1C[C@]1(N)C(=O)O; Hyp = O=C(O)[C@@H]1C[C@@H](O)CN1; Chg = N[C@H](C(=O)O)C1CCCCC1; X1 = c1ccc2cc(C*)ccc2c1

The values that follow come from ChEMBL document CHEMBL1149282, “A systematic approach to the optimization of substrate-based inhibitors of the hepatitis C virus NS3 protease: discovery of potent and specific tripeptide inhibitors” (J Med Chem, 2004).

The nature of assay [1]: Inhibition of HCV NS3 protease. Details: species or system Hepacivirus hominis.
Assay [2] relates to Hepatitis C virus. In words: Antiviral activity in Huh7 cells containing sub-genomic HCV subtype 1b replicon by RT-PCR. Particulars: genotype 1b, Huh-7. The format is functional, organism-based, Hepacivirus hominis. A general note: Replicon systems follow genome replication, usually without infectious particles.
The target of assay [3] is T1, Neutrophil elastase (Homo sapiens, UniProt P08246).
T1 sequence (P08246 whole entry): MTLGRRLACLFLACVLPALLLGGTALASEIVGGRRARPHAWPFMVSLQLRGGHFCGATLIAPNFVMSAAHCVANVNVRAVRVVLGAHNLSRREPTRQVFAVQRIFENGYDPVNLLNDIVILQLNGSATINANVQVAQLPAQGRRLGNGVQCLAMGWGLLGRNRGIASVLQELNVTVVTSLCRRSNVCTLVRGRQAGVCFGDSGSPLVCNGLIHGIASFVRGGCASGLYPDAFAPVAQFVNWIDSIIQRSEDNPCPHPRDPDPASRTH
Description: Inhibition of human leucocyte elastase.

Assay [4] has as its target Cathepsin B (Homo sapiens, UniProt P07858). Description: Inhibition of human cathepsin B.

By IC50 is commonly meant the concentration that inhibits the measured activity by half. In assay [1], `C=C[C@@H]1C[C@]1(NC(=O)[C@@H]1C[C@@H](Oc2cc(-c3ccccc3)nc3c(OC)c(OC)ccc23)CN1C(=O)[C@@H](NC(=O)[C@@H](NC(C)=O)C1CCCCC1)C(C)C)C(=O)O` showed an IC50 of 13 nM.
The same measure, in the same setting: then `C=C[C@@H]1C[C@]1(NC(=O)[C@@H]1C[C@@H](Oc2cc(-c3ccccc3)nc3cc(OC)ccc23)CN1C(=O)[C@@H](NC(=O)N(C)C(C)(C)C)C(C)(C)C)C(=O)O`, with 205 nM.
As usually defined, the EC50 is the midpoint of the concentration-response curve. The low end stands for a more potent agent, the high end for a less potent agent. With `C=C[C@@H]1C[C@]1(NC(=O)[C@@H]1C[C@@H](Oc2cc(-c3ccccc3)nc3cc(OC)ccc23)CN1C(=O)[C@@H](NC(=O)OC1CCC1)C(C)(C)C)C(=O)O`, the EC50 in assay [2] stood at 960 nM. The same molecule yielded an IC50 in assay [1] of 24 nM.
`C=C[C@@H]1C[C@]1(NC(=O)[C@@H]1C[C@@H](Oc2cc(-c3ccccc3)nc3ccc(OC)cc23)CN1C(=O)[C@@H](NC(=O)[C@@H](NC(C)=O)C1CCCCC1)C(C)C)C(=O)O` returned an IC50 in assay [1] of 41 nM.
The same measure, in the same setting: with `C=C[C@@H]1C[C@]1(NC(=O)[C@@H]1C[C@@H](Oc2cc(-c3ccccc3)nc3cc(OC)ccc23)CN1C(=O)[C@@H](NC(=O)[C@@H](NC(C)=O)C1CCCCC1)C(C)C)C(=O)O` the figure was 2 nM.
The same measure, in the same setting: with `C=C[C@@H]1C[C@]1(NC(=O)[C@@H]1C[C@@H](Oc2cc(-c3ccccc3)nc3cc(OC(C)C)ccc23)CN1C(=O)[C@@H](NC(=O)OC(C)(C)C)C(C)(C)C)C(=O)O` the figure was 228 nM; with `C=C[C@@H]1C[C@]1(NC(=O)[C@@H]1C[C@@H](Oc2cc(-c3ccccc3)nc3cc(C(=O)O)ccc23)CN1C(=O)[C@@H](NC(=O)OC(C)(C)C)C(C)(C)C)C(=O)O`, greater than 1000 nM; with `C=C[C@@H]1C[C@]1(NC(=O)[C@@H]1C[C@@H](Oc2cc(-c3ccccc3)nc3cccc(OC)c23)CN1C(=O)[C@@H](NC(=O)[C@@H](NC(C)=O)C1CCCCC1)C(C)C)C(=O)O`, 557 nM.
On the same count and under the same terms, with `C=C[C@@H]1C[C@]1(NC(=O)[C@@H]1C[C@@H](Oc2cc(-c3ccccc3)nc3cc(OC)ccc23)CN1C(=O)[C@@H](NC(=O)[C@@H](N)C1CCCCC1)C(C)(C)C)C(=O)O` the figure was 18 nM; with `C=C[C@@H]1C[C@]1(NC(=O)[C@@H]1C[C@@H](Oc2ccnc3ccccc23)CN1C(=O)[C@@H](NC(=O)[C@@H](NC(C)=O)C1CCCCC1)C(C)C)C(=O)O` (Ac-[Chg]V[Hyp(quinolin-4-yl)][Ac3c(1R,2S-2-vinyl)]-OH), 170 nM.
Molecule `C=C[C@@H]1C[C@]1(NC(=O)[C@@H]1C[C@@H](OCc2ccc3ccccc3c2)CN1C(=O)[C@@H](NC(=O)[C@@H](NC(C)=O)C1CCCCC1)C(C)C)C(=O)O` (Ac-[Chg]V[Hyp](X1)[Ac3c(1R,2S-2-vinyl)]-OH) came in with an IC50 in assay [1] of 600 nM.
The same measure, in the same setting: then `C=C[C@@H]1C[C@]1(NC(=O)[C@@H]1C[C@@H](Oc2cc(-c3ccccc3)nc3cc(OC)ccc23)CN1C(=O)[C@@H](NC(=O)[C@@H](NC(C)=O)C1CCCCC1)C(C)(C)C)C(=O)O`, with 1 nM; and `C=C[C@@H]1C[C@]1(NC(=O)[C@@H]1C[C@@H](Oc2cc(-c3ccccc3)nc3cc(OC(F)(F)F)ccc23)CN1C(=O)[C@@H](NC(=O)OC(C)(C)C)C(C)(C)C)C(=O)O`, with 790 nM.
The same measure, in the same setting: then `C=C[C@@H]1C[C@]1(NC(=O)[C@@H]1C[C@@H](Oc2cc(-c3ccccc3)nc3c(OC)cccc23)CN1C(=O)[C@@H](NC(=O)[C@@H](NC(C)=O)C1CCCCC1)C(C)C)C(=O)O`, with 5 nM.
`C=C[C@@H]1C[C@]1(NC(=O)[C@@H]1C[C@@H](Oc2cc(-c3ccccc3)nc3cc(OC)ccc23)CN1C(=O)[C@@H](NC(=O)OC1CCCCC1)C(C)(C)C)C(=O)O`: the response in assay [2] was half-maximal at 460 nM (EC50). Half-maximal inhibition in assay [1] (IC50) required 30 nM.
The matching figures for `C=C[C@@H]1C[C@]1(NC(=O)[C@@H]1C[C@@H](Oc2cc(-c3ccccc3)nc3cc(OC)ccc23)CN1C(=O)[C@@H](NC(=O)NC(C)(C)C)C(C)(C)C)C(=O)O`: 1220 nM and 8 nM.
`C=C[C@@H]1C[C@]1(NC(=O)[C@@H]1C[C@@H](Oc2cc(-c3ccccc3)nc3ccccc23)CN1C(=O)[C@@H](NC(=O)OC(C)(C)C)C(C)(C)C)C(=O)O`: the IC50 in assay [1] came to 150 nM. This lies in the sub-micromolar range.
On the same count and under the same terms, then `C=C[C@@H]1C[C@]1(NC(=O)[C@@H]1C[C@@H](Oc2cc(-c3ccccc3)nc3cc(Br)ccc23)CN1C(=O)[C@@H](NC(=O)OC(C)(C)C)C(C)(C)C)C(=O)O`, with 350 nM.
As to `C=C[C@@H]1C[C@]1(NC(=O)[C@@H]1C[C@@H](Oc2cc(-c3ccccc3)nc3cc(OC)ccc23)CN1C(=O)[C@@H](NC(=O)NC1CCCC1)C(C)(C)C)C(=O)O`, a half-maximal effect in assay [2] (EC50) was put at 910 nM. In addition, in assay [1], half-maximal inhibition (IC50) was put at 5 nM.
For `C=C[C@@H]1C[C@]1(NC(=O)[C@@H]1C[C@@H](Oc2cc(-c3ccccc3)nc3cc(OC)ccc23)CN1C(=O)[C@@H](NC(=O)[C@@H](C)C1CCCCC1)C(C)(C)C)C(=O)O`, in assay [1], the IC50 is 37 nM.
Same read-out and setting: then `C=C[C@@H]1C[C@]1(NC(=O)[C@@H]1C[C@@H](Oc2cc(-c3ccccc3)nc3cc(OC)ccc23)CN1C(=O)[C@@H](NC(=O)OC1CCCC1)C(C)(C)C)C(=O)O`, with 14 nM.
With `C=C[C@@H]1C[C@]1(NC(=O)[C@@H]1C[C@@H](Oc2cc(-c3ccccc3)nc3cc(OC)ccc23)CN1C(=O)[C@@H](NC(=O)OC(C)(C)C)C(C)(C)C)C(=O)O`, in assay [2], the EC50 amounted to 660 nM. Moreover, the values for the IC50 in assay [1] and in assay [3] were 29 nM and greater than 75000 nM, respectively.
For `C=C[C@@H]1C[C@]1(NC(=O)[C@@H]1C[C@@H](Oc2cc(-c3ccccc3)nc3cc(OC)ccc23)CN1C(=O)[C@@H](OC(=O)NC1CCCC1)C(C)(C)C)C(=O)O`, the midpoint of inhibition in assay [1], the IC50, lay at 148 nM.
On the same count and under the same terms, with `C=C[C@@H]1C[C@]1(NC(=O)[C@@H]1C[C@@H](Oc2ccnc3cc(OC)ccc23)CN1C(=O)[C@@H](NC(=O)[C@@H](NC(C)=O)C1CCCCC1)C(C)C)C(=O)O` the figure was 10 nM.
Regarding `C=C[C@@H]1C[C@]1(NC(=O)[C@@H]1C[C@@H](Oc2cc(-c3ccccc3)nc3cc(OC)ccc23)CN1C(=O)[C@@H](NC(=O)NC1CCCCC1)C(C)(C)C)C(=O)O`, the midpoint of the response in assay [2], the EC50, lay at 2900 nM. Further, in assay [1], the IC50 turned out to be 9 nM.
With `C=C[C@@H]1C[C@]1(NC(=O)[C@@H]1C[C@@H](Oc2cc(-c3ccccc3)nc3ccccc23)CN1C(=O)[C@@H](NC(=O)[C@@H](NC(C)=O)C1CCCCC1)C(C)C)C(=O)O` (Ac-[Chg]V[Hyp(2-Ph-quinolin-4-yl)][Ac3c(1R,2S-2-vinyl)]-OH), the IC50 is greater than 30000 nM in assay [4], 13 nM in assay [1] and greater than 30000 nM in assay [3].
With `C=C[C@@H]1C[C@]1(NC(=O)[C@@H]1C[C@@H](Oc2cc(-c3ccccc3)nc3cc(OC)ccc23)CN1C(=O)[C@@H](NC(=O)CC1CCCCC1)C(C)(C)C)C(=O)O`, in assay [1], 37 nM corresponded to half-maximal inhibition (IC50).
Same read-out and setting: then `C=C[C@@H]1C[C@]1(NC(=O)[C@@H]1C[C@@H](Oc2cc(-c3ccccc3)nc3cc(SC)ccc23)CN1C(=O)[C@@H](NC(=O)OC(C)(C)C)C(C)(C)C)C(=O)O`, with 139 nM; and `C=C[C@@H]1C[C@]1(NC(=O)[C@@H]1C[C@@H](Oc2cc(-c3ccccc3)nc3cc(C(F)(F)F)ccc23)CN1C(=O)[C@@H](NC(=O)OC(C)(C)C)C(C)(C)C)C(=O)O`, with 828 nM; and `C=C[C@@H]1C[C@]1(NC(=O)[C@@H]1C[C@@H](Oc2cc(-c3ccccc3)nc3cc(F)ccc23)CN1C(=O)[C@@H](NC(=O)OC(C)(C)C)C(C)(C)C)C(=O)O`, with 282 nM.
With `C=C[C@@H]1C[C@]1(NC(=O)[C@@H]1C[C@@H](Oc2cc(-c3ccccc3)nc3cc(NC(C)=O)ccc23)CN1C(=O)[C@@H](NC(=O)OC(C)(C)C)C(C)(C)C)C(=O)O`, in assay [1], half-maximal inhibition (IC50) was put at 29 nM.
